According to US8921405B2, “Compounds” (Orexo AB, priority 2009, dated 2014):

Target: T1, recombinant human mPGES-1 (Homo sapiens, UniProt O14684)
T1 construct: made in house; host or cells: Rosetta E. coli (membrane/microsome fraction)
T1 sequence (O14684 1-152): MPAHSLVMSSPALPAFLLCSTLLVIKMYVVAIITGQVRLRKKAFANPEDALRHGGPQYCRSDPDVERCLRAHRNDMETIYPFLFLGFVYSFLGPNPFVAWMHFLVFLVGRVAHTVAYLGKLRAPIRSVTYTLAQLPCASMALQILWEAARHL
Test: mPGES-1 HTRF assay (inhibition of PGE2 formation from PGH2)
Assay type: biochemical
Details: HTRF assay; for inhibition at 10 µM: compound concentration of 10 μM, read-out: % inhibition
Procedure: The basis of the assay used is to measure the inhibition of microsomal prostaglandin E2 synthase-1 (mPGES-1) dependent prostaglandin (PG) E2 formation from PGH2 by different compounds. Thus, the formation of PGE2 is used as signal and a lowering of this signal can be interpreted as inhibition of mPGES-1. […] Microsomes from Rosetta E. coli bacteria expressing recombinant human mPGES-1 can be derived as described below: Inoculate 5 ml LB with Amp and Chloro with bacteria from freeze culture. Incubate over night at 37° C. with 200 rpm. Thereafter, inoculate 500-800 ml LB containing Amp and Chloro with the 5 ml on culture and grow to OD640 of 0.6-0.8. Chill the culture to +4° C. before induction. Induce the culture with IPTG at a final concentration of 400 μM. Express the protein at room temp 18-23° C. with 200 rpm shaking over night. The following steps can be performed on the following day: • 1. Spin down the cells in 250 ml centrifuge flasks for 15 min at 7000 rpm • 2. Dissolve the pellet from 250 ml culture in 12.5 ml homogenization buffer • 3. Disintegrate the cells by sonication, 4×10 seconds at 35% amplitude • 4. Add 2.5 ml MgCl2 (100 mM) and DNase 12.5 μl (0.8 mg/ml) and incubate on ice for 30 min • 5. Spin down the bacteria debris and save the supernatant, 7000 rpm for 15 min • 6. Isolate the protein containing membranes in the supernatant by ultracentrifugation 45000×g for 1 hour. • 7. Discard the supernatant and dissolve the pellet in 20 mM KPi buffer and aliquot the enzyme and store aliquots at −80° C. Before each experiment is performed an aliquot of the enzyme is thawed and it can then be dissolved in 0.1 M KPi pH 7.4 buffer containing 2.5 mM GSH. 50 μl of this enzyme solution is subsequently dispensed in a 384-well plate at room temperature. 0.5 μl of the inhibitor dissolved in DMSO is thereafter added to each well and incubated for 25 minutes at room temperature. Subsequently, 2 μl of PGH2 dissolved in an appropriate solvent is added to each well and after one minute at room temperature, the acidified stop solution containing FeCl2 is added. 4 μl of the total volume is transferred to a separate plate and diluted 750-fold in two separate steps before quantification of PGE2. In order to quantitate the amount of PGE2 that has been formed, a homogenous time resolved fluorescent (HTRF) detection of PGE2 can be performed by the use of a commercially available kit from CisBio essentially according to the manufacturer's protocol. […] The sealing film is thereafter removed from the NC wells. • 5 μl Eu3+-cryptate labeled anti-PGE2 can now be added to rows 1 to 24 by using a Multidrop. • The plate can now be covered with sealing film. • The plate can now be centrifuge at 1200 rpm for 1 minute and place at 4° C. overnight. After the over night incubation the fluorescence is measured by the use of an appropriate microplate reader. […] The extent of the specific HTRF is measured as a ratio of the emission intensity at 665 nm vs. that at 620 nm. A standard curve using synthetic PGE2 is used to quantify the amount of PGE2 in unknown samples. The degree of inhibition can be calculated as percent inhibition by dividing the amount of PGE2 formed in unknown samples by the amount of PGE2 formed in control samples.

SMILES | inhibition at 10 µM [%] | IC50 [nM]
Cn1c(Nc2cc(CNC(=O)C3(C)CCC(F)(F)CC3)ccc2Cl)nc2cc(C(=O)Nc3ccc(Br)cc3)ccc21 [Example 51, N-(4-Bromophenyl)-2-{2-chloro-5-[(4,4-difluoro-1-methylcyclohexyl-amido)methyl]phenylamino}-1-methylbenzimidazole-5-carboxamide] | 94 | –
Cn1c(Nc2cc(CNC(=O)C3(C(F)(F)F)CC3)ccc2Cl)nc2cc(C(=O)NCCOC(C)(C)C)ccc21 [Example 52, N-(2-tert-Butoxyethyl)-2-{2-chloro-5-[(1-trifluoromethylcyclopropyl-amido)methyl]phenylamino}-1-methylbenzimidazole-5-carboxamide] | 96 | –
Cn1c(Nc2cc(CNC(=O)C3(C(F)(F)F)CC3)ccc2Cl)nc2cc(C(=O)NCCCC(F)(F)F)ccc21 [Example 53, 2-{2-Chloro-5-[(1-trifluoromethylcyclopropylamido)methyl]phenylamino}-1-methyl-N-(4,4,4-trifluorobutyl)benzimidazole-5-carboxamide] | 100 | –
COc1cc2c(cc1C(=O)Nc1ccc(Br)cc1)nc(Nc1cc(CNC(=O)C3(C(F)(F)F)CC3)ccc1Cl)n2C [Example 63, N-(4-Bromo-phenyl)-2-(2-chloro-5-{[(1-trifluoromethyl-cyclopropanecarbonyl)-amino]-methyl}-phenylamino)-6-methoxy-1-methyl-1H-benzimidazole-5-carboxylic acid amide] | – | 2
O=C(Nc1ccc(Br)cc1)c1cc2nc(Nc3cc(CNC(=O)C4(C(F)(F)F)CC4)ccc3Cl)[nH]c2cc1OCC(F)F [Example 67, N-(4-Bromo-phenyl)-2-(2-chloro-5-{[(1-trifluoromethyl-cyclopropanecarbonyl)-amino]-methyl}-phenylamino)-6-(2,2-difluoro-ethoxy)-1H-benzimidazole-5-carboxylic acid amide] | – | 2
O=C(NCC1CC1)c1cc2nc(Nc3cc(CNC(=O)C4(C(F)(F)F)CC4)ccc3Cl)[nH]c2cc1OCC(F)F [Example 68, N-(Cyclopropylmethyl)-2-(2-chloro-5-[{(l-trifluoromethyl-cyclopropanecarbonyl)-amino]-methyl}-phenylamino)-6-(2,2-difluoro-ethoxy)-1H-benzimidazole-5-carboxylic acid amide] | – | 3
COc1cc2[nH]c(Nc3cc(CNC(=O)C4(C(F)(F)F)CC4)ccc3Cl)nc2cc1C(=O)Nc1ccc(Br)cc1 [Example 69, N-(4-Bromo-phenyl)-2-(2-chloro-5-{[(1-trifluoromethyl-cyclopropanecarbonyl)-amino]-methyl}-phenylamino)-6-methoxy-1H-benzimidazole-5-carboxylic acid amide] | – | 1
CN(C)CCn1c(Nc2cc(CNC(=O)C3(C(F)(F)F)CC3)ccc2Cl)nc2cc(C(=O)Nc3ccc(Br)cc3)ccc21 [Example 70, N-(4-Bromo-phenyl)-2-(2-chloro-5-{[(1-trifluoromethyl-cyclopropanecarbonyl)-amino]-methyl}-phenylamino)-1-(2-(dimethylamino)ethyl)-1H-benzimidazole-5-carboxylic acid amide] | – | 3
COCCn1c(Nc2cc(CNC(=O)C3(C(F)(F)F)CC3)ccc2Cl)nc2cc(C(=O)Nc3ccc(Br)cc3)ccc21 [Example 71, N-(4-Bromo-phenyl)-2-(2-chloro-5-{[(1-trifluoromethyl-cyclopropanecarbonyl)-amino]-methyl}-phenylamino)-1-(2-methoxyethyl)-1H-benzimidazole-5-carboxylic acid amide] | – | 2

Further lines, results first:

inhibition at 10 µM [%] | IC50 [nM] | SMILES
98 | – | Cn1c(Nc2cc(CNC(=O)C3(C(F)(F)F)CC3)ccc2Cl)nc2cc(C(=O)NC3CCC(F)(F)CC3)ccc21 [Example 54, 2-{2-chloro-5-[(1-trifluoromethylcyclopropylamido)methyl]phenylamino}-N-(4,4-difluorocyclohexyl)-1-methylbenzimidazole-5-carboxamide]
68 | – | CN1CCCC1CCNC(=O)c1ccc2c(c1)nc(Nc1cc(CNC(=O)C3(C(F)(F)F)CC3)ccc1Cl)n2C (stereo not shown) [Example 55, 2-{2-chloro-5-[(1-trifluoromethylcyclopropylamido)methyl]phenylamino}-1-methyl-N-[2-(1-methyl-2-pyrrolidinyl)ethyl]benzimidazole-5-carboxamide]
– | 1 | Cn1c(Nc2cc(CNC(=O)C(C)(C)C)ccc2Cl)nc2cc(C(=O)Nc3ccc(Br)cc3)ccc21 [Example 57, N-(4-Bromophenyl)-2-{2-chloro-5-[(tert.butylcarbonylamino)methyl]-phenylamino}-1-methylbenzimidazole-5-carboxamide]
– | 2 | Cn1c(Nc2cc(CNC(=O)C3(C(F)(F)F)CC3)ccc2Cl)nc2cc(C(=O)Nc3ccc(Br)cc3)c(OCC(F)F)cc21 [Example 59, N-(4-Bromo-phenyl)-2-(2-chloro-5-{[(1-trifluoromethyl-cyclopropanecarbonyl)-amino]-methyl}-phenylamino)-6-(2,2-difluoro-ethoxy)-1-methyl-1H-benzimidazole-5-carboxylic acid amide]
– | 1 | Cn1c(Nc2cc(CNC(=O)C3(C(F)(F)F)CC3)ccc2Cl)nc2cc(C(=O)NCC3CC3)c(OCC(F)F)cc21 [Example 60, N-(Cyclopropylmethyl)-2-(2-chloro-5-{[(1-trifluoromethyl-cyclopropanecarbonyl)-amino]-methyl}-phenylamino)-6-(2,2-difluoro-ethoxy)-1-methyl-1H-benzimidazole-5-carboxylic acid amide]
– | 1 | Cn1c(Nc2cc(CNC(=O)C3(C(F)(F)F)CC3)ccc2Cl)nc2cc(C(=O)NCCCC(F)(F)F)c(OCC(F)F)cc21 [Example 61, N-(4,4,4-Trifluorobutyl)-2-(2-chloro-5-{[(1-trifluoromethyl-cyclopropanecarbonyl)-amino]-methyl}-phenylamino)-6-(2,2-difluoro-ethoxy)-1-methyl-1H-benzimidazole-5-carboxylic acid amide]
– | 1 | Cn1c(Nc2cc(CNC(=O)C3(C(F)(F)F)CC3)ccc2Cl)nc2cc(C(=O)NC3CCC(F)(F)CC3)c(OCC(F)F)cc21 [Example 62, N-(4,4-Difluorocyclohexyl)-2-(2-chloro-5-{[(1-trifluoromethyl-cyclopropanecarbonyl)-amino]-methyl}-phenylamino)-6-(2,2-difluoro-ethoxy)-1-methyl-1H-benzimidazole-5-carboxylic acid amide]
– | 2 | COc1cc2c(cc1C(=O)NCC1CC1)nc(Nc1cc(CNC(=O)C3(C(F)(F)F)CC3)ccc1Cl)n2C [Example 64, N-(Cyclopropylmethyl)-2-(2-chloro-5-{[(1-trifluoromethyl-cyclopropanecarbonyl)-amino]-methyl}-phenylamino)-6-methoxy-1-methyl-1H-benzimidazole-5-carboxylic acid amide]
– | 300 | COc1cc2c(cc1C(N)=O)nc(Nc1cc(CNC(=O)C3(C(F)(F)F)CC3)ccc1Cl)n2C [Example 65, 2-(2-chloro-5-{[(1-trifluoromethyl-cyclopropanecarbonyl)-amino]-methyl}-phenylamino)-6-methoxy-1-methyl-1H-benzimidazole-5-carboxylic acid amide]
– | 3 | Cn1c(Nc2cc(CNC(=O)C3(C(F)(F)F)CC3)ccc2F)nc2cc(C(=O)Nc3ccc(Br)cc3)c(OCC(F)F)cc21 [Example 66, N-(4-Bromo-phenyl)-2-(2-fluoro-5-{[(1-trifluoromethyl-cyclopropanecarbonyl)-amino]-methyl}-phenylamino)-6-(2,2-difluoro-ethoxy)-1-methyl-1H-benzimidazole-5-carboxylic acid amide]
